Laboratory results as given in PubChem BioAssay AID2060622 (Molecular Pharmacology Branch, DTP, NCI, 2025).
Several values for one entry are separate records, joined by “and”; a condition that tells them apart may be missing. Identical values can stand only once. Values belong to the molecule of their own block, whether it stands above or below them.

Tested on: 242566-281-R-J2-PDC complex spheroid viability
Experiment: Anticancer human tumor 242566-281-R-J2-PDC patient-derived pancreatic carcinoma cell line growth inhibition [CLK]
Settings: for viability, T/C: stronger effect = lower value
In short: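 Patient-derived tumor cells grown as complex spheroids with HUVEC endothelial cells and mesenchymal stem cells, treated with drug combinations. Concentrations descend in half-log steps from near clinical Cmax, or from 10 microM if Cmax unknown.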

[1] = curve of first compound, second compound 0.0316 µM
[2] = curve of first compound, second compound 0.1 µM
[3] = curve of first compound, second compound 0.316 µM
[4] = curve of first compound, second compound 1 µM
[5] = curve of first compound, second compound 3.16 µM
[6] = curve of first compound, second compound 10 µM
[7] = second compound 0.0316 µM, first compound 0.0316 µM
[8] = second compound 0.0316 µM, first compound 0.1 µM
[9] = second compound 0.0316 µM, first compound 0.316 µM
[10] = second compound 0.0316 µM, first compound 1 µM
[11] = second compound 0.0316 µM, first compound 3.16 µM
[12] = second compound 0.0316 µM, first compound 10 µM
[13] = second compound 0.1 µM, first compound 0.0316 µM
[14] = second compound 0.1 µM, first compound 0.1 µM
[15] = second compound 0.1 µM, first compound 0.316 µM
[16] = second compound 0.1 µM, first compound 1 µM
[17] = second compound 0.1 µM, first compound 3.16 µM
[18] = second compound 0.1 µM, first compound 10 µM
[19] = second compound 0.316 µM, first compound 0.0316 µM
[20] = second compound 0.316 µM, first compound 0.1 µM
[21] = second compound 0.316 µM, first compound 0.316 µM
[22] = second compound 0.316 µM, first compound 1 µM
[23] = second compound 0.316 µM, first compound 3.16 µM
[24] = second compound 0.316 µM, first compound 10 µM
[25] = second compound 1 µM, first compound 0.0316 µM
[26] = second compound 1 µM, first compound 0.1 µM
[27] = second compound 1 µM, first compound 0.316 µM
[28] = second compound 1 µM, first compound 1 µM
[29] = second compound 1 µM, first compound 3.16 µM
[30] = second compound 1 µM, first compound 10 µM
[31] = second compound 3.16 µM, first compound 0.0316 µM
[32] = second compound 3.16 µM, first compound 0.1 µM
[33] = second compound 3.16 µM, first compound 0.316 µM
[34] = second compound 3.16 µM, first compound 1 µM
[35] = second compound 3.16 µM, first compound 3.16 µM
[36] = second compound 3.16 µM, first compound 10 µM
[37] = second compound 10 µM, first compound 0.0316 µM
[38] = second compound 10 µM, first compound 0.1 µM
[39] = second compound 10 µM, first compound 0.316 µM
[40] = second compound 10 µM, first compound 1 µM
[41] = second compound 10 µM, first compound 3.16 µM
[42] = second compound 10 µM, first compound 10 µM
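Further: spheroids exposed to compounds for 7 days before readout.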
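Wherever viability, T/C is given: 100% = DMSO vehicle control wells.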

IC50 (curve of compound): 1.19 µM and > 3 µM
Compound: NC(=O)C(=Cn1cnc(-c2cc(C(F)(F)F)cc(C(F)(F)F)c2)n1)c1cncnc1
viability, T/C (compound 0.00949 µM): 108% and 96.6%
viability, T/C (compound 0.03 µM): 103%
viability, T/C (compound 0.0949 µM): 99.7% and 142%
viability, T/C (compound 0.3 µM): 99% and 152%
viability, T/C (compound 0.949 µM): 55.8% and 101%
viability, T/C (compound 3 µM): 25.7% and 58.9%

IC50 [1]: > 10 µM
IC50 [2]: > 10 µM
IC50 [3]: 10 µM
IC50 [4]: > 10 µM
IC50 [5]: > 10 µM
IC50 [6]: > 10 µM
Compound: CC1(C)CCC(CN2CCN(c3ccc(C(=O)NS(=O)(=O)c4ccc(NCC5CCOCC5)c([N+](=O)[O-])c4)c(Oc4cnc5[nH]ccc5c4)c3)CC2)=C(c2ccc(Cl)cc2)C1 + CNC(=O)c1ccc(Nc2nc(OC3CCCC3)c3c(-c4ccc5nc(C)oc5c4)c[nH]c3n2)c(OC)c1
viability, T/C [7]: 80%
viability, T/C [8]: 95.8%
viability, T/C [9]: 113%
viability, T/C [10]: 123%
viability, T/C [11]: 115%
viability, T/C [12]: 96.4%
viability, T/C [13]: 83%
viability, T/C [14]: 92%
viability, T/C [15]: 97.2%
viability, T/C [16]: 131%
viability, T/C [17]: 105%
viability, T/C [18]: 73.9%
viability, T/C [19]: 87.3%
viability, T/C [20]: 96.6%
viability, T/C [21]: 72%
viability, T/C [22]: 92.4%
viability, T/C [23]: 84.8%
viability, T/C [24]: 50%
viability, T/C [25]: 71.2%
viability, T/C [26]: 68.4%
viability, T/C [27]: 69.7%
viability, T/C [28]: 73%
viability, T/C [29]: 77.9%
viability, T/C [30]: 60.4%
viability, T/C [31]: 51.9%
viability, T/C [32]: 54%
viability, T/C [33]: 57.8%
viability, T/C [34]: 61.8%
viability, T/C [35]: 66.3%
viability, T/C [36]: 45.4%
viability, T/C [37]: 54.6%
viability, T/C [38]: 49.2%
viability, T/C [39]: 54.3%
viability, T/C [40]: 55.3%
viability, T/C [41]: 60.2%
viability, T/C [42]: 46.8%

IC50 (curve of compound): > 10 µM
Compound: C=CC(=O)N1CCN(c2nc(=O)n(-c3c(C)ccnc3C(C)C)c3nc(-c4c(O)cccc4F)c(F)cc23)C(C)C1 (stereo not given)
viability, T/C (compound 0.0316 µM): 95.5% and 104%
viability, T/C (compound 0.1 µM): 80.4% and 92.4%
viability, T/C (compound 0.316 µM): 78.5% and 103%
viability, T/C (compound 1 µM): 104% and 90.6%
viability, T/C (compound 3.16 µM): 102% and 88.7%
viability, T/C (compound 10 µM): 70.8% and 77.6%

IC50 [1]: > 10 µM
IC50 [2]: > 10 µM
IC50 [3]: > 10 µM
IC50 [4]: > 10 µM
IC50 [5]: > 10 µM
IC50 [6]: > 10 µM
Compound: O=C(c1cc(Cc2n[nH]c(=O)c3ccccc23)ccc1F)N1CCN(C(=O)C2CC2)CC1 + CNC(=O)c1ccc(Nc2nc(OC3CCCC3)c3c(-c4ccc5nc(C)oc5c4)c[nH]c3n2)c(OC)c1
viability, T/C [7]: 94.9%
viability, T/C [8]: 110%
viability, T/C [9]: 96.1%
viability, T/C [10]: 115%
viability, T/C [11]: 95.6%
viability, T/C [12]: 81.9%
viability, T/C [13]: 97.9%
viability, T/C [14]: 98.4%
viability, T/C [15]: 117%
viability, T/C [16]: 98.4%
viability, T/C [17]: 88.4%
viability, T/C [18]: 70.3%
viability, T/C [19]: 92.6%
viability, T/C [20]: 83.6%
viability, T/C [21]: 87.6%
viability, T/C [22]: 92.7%
viability, T/C [23]: 92%
viability, T/C [24]: 65%
viability, T/C [25]: 81.9%
viability, T/C [26]: 57.1%
viability, T/C [27]: 65.5%
viability, T/C [28]: 69.8%
viability, T/C [29]: 70.5%
viability, T/C [30]: 55.3%
viability, T/C [31]: 63%
viability, T/C [32]: 60%
viability, T/C [33]: 58.6%
viability, T/C [34]: 51.7%
viability, T/C [35]: 52.2%
viability, T/C [36]: 56.2%
viability, T/C [37]: 52.5%
viability, T/C [38]: 52.2%
viability, T/C [39]: 52.7%
viability, T/C [40]: 52.5%
viability, T/C [41]: 46%
viability, T/C [42]: 57.6%

IC50 (curve of compound): > 10 µM
Compound: O=c1[nH]cc(F)c(=O)[nH]1
viability, T/C (compound 0.0316 µM): 103% and 83.7%
viability, T/C (compound 0.1 µM): 104% and 86%
viability, T/C (compound 0.316 µM): 95.3% and 77.2%
viability, T/C (compound 1 µM): 67.9% and 91.2%
viability, T/C (compound 3.16 µM): 56.6% and 65%
viability, T/C (compound 10 µM): 52.4% and 53.3%
